This passage reports IC50 and Ki results from patent US20080090845A1, “Haloalkyl-substituted pyrimidinone derivatives” (Neurogen Corporation, priority 2006, published 2008).

A word on the IC50: it is the point on the concentration scale where inhibition reaches its midpoint. Broadly, the Ki is a dissociation constant, usually derived from enzyme kinetics or from competition with a known ligand.

T1 sequence (Q8NER1 whole entry): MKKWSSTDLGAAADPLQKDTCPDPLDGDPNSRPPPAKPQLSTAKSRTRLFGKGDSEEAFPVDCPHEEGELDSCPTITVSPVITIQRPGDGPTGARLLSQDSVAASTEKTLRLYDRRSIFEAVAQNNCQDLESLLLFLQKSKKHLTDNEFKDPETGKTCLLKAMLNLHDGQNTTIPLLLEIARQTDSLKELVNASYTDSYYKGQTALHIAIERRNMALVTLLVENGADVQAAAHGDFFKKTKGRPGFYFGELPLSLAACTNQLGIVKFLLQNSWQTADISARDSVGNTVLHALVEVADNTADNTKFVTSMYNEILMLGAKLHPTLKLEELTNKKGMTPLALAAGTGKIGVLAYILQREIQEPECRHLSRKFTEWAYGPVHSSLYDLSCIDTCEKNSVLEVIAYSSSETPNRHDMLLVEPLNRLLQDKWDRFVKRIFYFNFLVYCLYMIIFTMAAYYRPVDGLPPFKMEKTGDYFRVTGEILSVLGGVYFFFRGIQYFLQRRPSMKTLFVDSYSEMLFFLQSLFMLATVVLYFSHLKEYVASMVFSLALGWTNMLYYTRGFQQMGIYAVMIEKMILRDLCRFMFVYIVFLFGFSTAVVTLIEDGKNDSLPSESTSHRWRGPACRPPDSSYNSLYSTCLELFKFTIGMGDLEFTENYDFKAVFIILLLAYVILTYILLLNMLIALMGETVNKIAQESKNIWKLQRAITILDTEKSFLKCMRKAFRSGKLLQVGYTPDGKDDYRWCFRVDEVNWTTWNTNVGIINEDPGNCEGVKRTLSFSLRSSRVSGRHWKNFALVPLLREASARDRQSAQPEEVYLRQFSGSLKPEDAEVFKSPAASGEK

The first experiment has as its target T1, human capsaicin receptor (Homo sapiens, UniProt Q8NER1).
T1 construct: pBK-CMV expression construct encoding the full length human capsaicin receptor; expressed in transfected cells
The experiment in a line: Calcium mobilization assay, determination of antagonist activity (Example 6). The experiment is classed as cell-based. The conditions noted are these: cells expressing human capsaicin receptor, capsaicin-induced fluorescence response; read-out: IC50. The method, then:
A cDNA encoding full length human capsaicin receptor (SEQ ID NO:1, 2 or 3 of U.S. Pat. No. 6,482,611) is subcloned in the plasmid pBK-CMV (Stratagene, La Jolla, Calif.) for recombinant expression in mammalian cells.
Human embryonic kidney (HEK293) cells are transfected with the pBK-CMV expression construct encoding the full length human capsaicin receptor using standard methods. The transfected cells are selected for two weeks in media containing G418 (400 μg/ml) to obtain a pool of stably transfected cells. Independent clones are isolated from this pool by limiting dilution to obtain clonal stable cell lines for use in subsequent experiments.
Cells transfected with expression plasmids (as described in Example 4) and thereby expressing human capsaicin receptor are seeded and grown to 70-90% confluency in FALCON black-walled, clear-bottomed 96-well plates (#3904, BECTON-DICKINSON, Franklin Lakes, N.J.). The culture medium is emptied from the 96 well plates and FLUO-3 AM calcium sensitive dye (Molecular Probes, Eugene, Oreg.) is added to each well (dye solution: 1 mg FLUO-3 AM, 440 μl DMSO and 440 μl 20% pluronic acid in DMSO diluted 1:250 in Krebs-Ringer HEPES (KRH) buffer (25 mM HEPES, 5 mM KCl, 0.96 mM NaH2PO4, 1 mM MgSO4, 2 mM CaCl2, 5 mM glucose, 1 mM probenecid, pH 7.4), 50 μl diluted solution per well). Plates are covered with aluminum foil and incubated at 37° C. for 1-2 hours in an environment containing 5% CO2. After the incubation, the dye is emptied from the plates, and the cells are washed once with KRH buffer, and resuspended in KRH buffer.
To measure the ability of a test compound to agonize or antagonize a calcium mobilization response in cells expressing capsaicin receptors to capsaicin or other vanilloid agonist, the EC50 of the agonist capsaicin is first determined. An additional 20 μl of KRH buffer and 1 μl DMSO is added to each well of cells, prepared as described above. 100 μl capsaicin in KRH buffer is automatically transferred by the FLIPR instrument to each well. Capsaicin-induced calcium mobilization is monitored using either FLUOROSKAN ASCENT (Labsystems; Franklin, Mass.) or FLIPR (fluorometric imaging plate reader system; Molecular Devices, Sunnyvale, Calif.) instruments. Data obtained between 30 and 60 seconds after agonist application are used to generate an 8-point concentration response curve, with final capsaicin concentrations of 1 nM to 3 μM. KALEIDAGRAPH software (Synergy Software, Reading, Pa.) is used to fit the data to the equation: y=a*(1/(1+(b/x)^c)) to determine the 50% excitatory concentration (EC50) for the response. In this equation, y is the maximum fluorescence signal, x is the concentration of the agonist or antagonist (in this case, capsaicin), a is the Emax, b corresponds to the EC50 value and c is the Hill coefficient. Determination of Agonist Activity
Test compounds are dissolved in DMSO, diluted in 20 μl KRH buffer so that the final concentration of test compounds in the assay well is between 1 μM and 5 μM, and added to cells prepared as described above. The 96 well plates containing prepared cells and test compounds are incubated in the dark, at room temperature for 0.5 to 6 hours. It is important that the incubation not continue beyond 6 hours. Just prior to determining the fluorescence response, 100 μl capsaicin in KRH buffer at twice the EC50 concentration determined as described above is automatically added by the FLIPR instrument to each well of the 96 well plate for a final sample volume of 200 μl and a final capsaicin concentration equal to the EC50. The final concentration of test compounds in the assay wells is between 1 μM and 5 μM. […] The concentration of antagonist required to provide a 50% decrease, relative to the response observed in the presence of capsaicin and without antagonist, is the IC50 for the antagonist, and is preferably below 1 micromolar, 100 nanomolar, 10 nanomolar or 1 nanomolar.
On the technique in general: Calcium assays in cells follow changes in intracellular calcium, usually with a dye or a luminescent sensor.
Take `C[C@H](CCc1nc2c(ncn2C)c(=O)n1-c1ccc(Cl)cc1)C(F)(F)F` [Compound 33, 1-(4-chlorophenyl)-9-methyl-2-[(3R)-4,4,4-fluoro-3-methylbutyl]-1,9-dihydro-6H-purin-6-one]: the IC50 was not above 100 nM.
`CCn1cnc2c(=O)n(-c3ccc(C#N)cc3)c(CCC(C)C(F)(F)F)nc21` (stereo not drawn) [Compound 34, 4-[9-ethyl-6-oxo-2-(4,4,4-trifluoro-3-methylbutyl)-6,9-dihydro-1H-purin-1-yl]benzonitrile]: the IC50 was not above 100 nM.
In the case of `CC(Cc1nc2cccnc2c(=O)n1-c1ccc(Cl)cc1)CC(F)(F)F` (stereo not drawn) [Compound 35, 3-(4-chlorophenyl)-2-(4,4,4-trifluoro-2-methylbutyl)pyrido[3,2-d]pyrimidin-4(3H)-one], the IC50 was not above 100 nM.
In the case of `CCn1cnc2c(=O)n(-c3ccc(C#N)cc3)c(CC(C)C(F)(F)F)nc21` (stereo not drawn) [Compound 36, 4-[9-ethyl-6-oxo-2-(3,3,3-trifluoro-2-methylpropyl)-6,9-dihydro-1H-purin-1-yl]benzonitrile], the IC50 is not above 100 nM.
Still for that read-out and setting: to `CC(Cc1nc2c(ncn2C)c(=O)n1-c1ccc(C#N)cc1)C(F)(F)F` (stereo not drawn) [Compound 37, 4-[9-methyl-6-oxo-2-(3,3,3-trifluoro-2-methylpropyl)-6,9-dihydro-1H-purin-1-yl]benzonitrile] belongs not above 100 nM.

The target in the next experiment is VR (Homo sapiens, UniProt Q8NER1).
Sequence of VR (Q8NER1 whole entry): as above
Experiment: not given
The note with it: typical value, background section; cited from earlier work.
Regarding `Cl.Cl.Cl.Cl.Cl.Cl.N.N.N.N.N.N.N.N.N.N.N.N.N.N.[O-2].[O-2].[Ru+3].[Ru+3].[Ru+4]` [ruthenium red], the Ki is not below 140000 nM.
